How the values were obtained:
[1] = target: T1, K12 tau (first-generation AD-brain-seeded K12 fibrils) (Homo sapiens, UniProt P10636, C639A); experiment: fluorescence polarization with K12 fibrils; details: 10 μM compound; AD-seeded K12 fibrils (monomer equivalents); 250 mM Na3citrate, 10 mM HEPES pH 7.4; 1% DMSO; room temperature; one-step binding fit
T1 construct: gene MAPT; 3R fragment; E. coli; amyloid fibrils seeded with Alzheimer's disease brain homogenate, heparin-free

[2] = target: T1, K12 tau (first-generation AD-brain-seeded K12 fibrils); experiment: ThT seeded aggregation kinetics ([…]/t1/[…]); format: biochemical; details: read-out: KIC50; 5 μM K12 monomer seeded with 50 nM first-generation AD-derived K12 seeds; 250 mM Na3citrate, 10 mM HEPES pH 7.4; 1% DMSO; quiescent; inhibition of fibril formation

T1 sequence (P10636 561-717 C639A): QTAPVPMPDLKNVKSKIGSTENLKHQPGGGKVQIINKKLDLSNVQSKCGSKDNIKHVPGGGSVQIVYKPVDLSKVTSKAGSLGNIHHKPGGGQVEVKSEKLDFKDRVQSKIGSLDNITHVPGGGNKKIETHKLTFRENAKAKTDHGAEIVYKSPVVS

Row | Kd [1] [nM] | IC50 [2] [nM] | Structure (SMILES)
1 | 1580 ± 150 | 2600 ± 500 | Cc1noc(C2CCN(C(=O)CNC(=O)c3ccccc3)C2)n1 (stereo not shown) [I1.21]
2 | 740 ± 280 | 7400 ± 5000 | Cc1noc(C2CCN(C(=O)CCCc3ccccc3)CC2)n1 [I1.51]
